Measured values as given in ChEMBL document CHEMBL4190317, “Design, synthesis, and biological evaluation of novel 3-substituted imidazo[1,2-a]pyridine and quinazolin-4(3H)-one derivatives as PI3Kα inhibitors” (Eur J Med Chem, 2017).
The source made the active and inactive calls. The calls are words filed in the database; no cut-off is given here.

Columns and labels:
[1] = biological target: Phosphatidylinositol 4,5-bisphosphate 3-kinase catalytic subunit gamma isoform (Homo sapiens, UniProt P48736); experiment: Inhibition of N-terminal His6-tagged recombinant full-length human PI3Kgamma expressed in baculovirus infected Sf21 insect cells using PIP2 as substrate by HTRF […] assay
SK-HEP1 = experiment: Antiproliferative activity against human SKHEP1 cells after 72 hrs by SRB assay; settings: SK-HEP1, 72 h
SNU-638 = experiment: Antiproliferative activity against human SNU638 cells after 72 hrs by SRB assay; settings: SNU-638, 72 h
MDA-MB-231 = experiment: Antiproliferative activity against human MDA-MB-231 cells after 72 hrs by SRB assay; settings: MDA-MB-231, 72 h
Homo sapiens [2] = species on record: Homo sapiens; experiment: Inhibition of PI3K in human HCT116 cells assessed as reduction in Akt phosphorylation at Ser473 residue at 0.5 uM after 24 hrs by Western blot analysis; format: cell-based
HCT-116 = experiment: cells; settings: Homo sapiens, HCT-116, 72 h
A549 = experiment: cells; settings: Homo sapiens, A549, 72 h
Description: Antiproliferative activity against human A549 cells after 72 hrs by SRB assay

[3] = biological target: Phosphatidylinositol 4,5-bisphosphate 3-kinase catalytic subunit beta isoform (Homo sapiens, UniProt P42338); experiment: Inhibition of PI3Kbeta (unknown origin) using PIP2 as substrate by HTRF […] assay
[4] = biological target: PI3-kinase p110-delta/p85-alpha (Homo sapiens, UniProt O00329); experiment: Inhibition of p110delta/p85alpha (unknown origin) using PIP2 as substrate by HTRF […] assay; format: protein-complex assay
HUVEC = experiment: Cytotoxicity against HUVEC after 72 hrs by SRB assay; settings: Homo sapiens
[5] = biological target: PI3-kinase p110-alpha/p85-alpha (Homo sapiens, UniProt P42336); experiment: Inhibition of N-terminal His6-tagged recombinant full-length human p110alpha/untagged recombinant full length human p85alpha expressed in baculovirus infected Sf21 insect cells using PIP2 as substrate by HTRF […] assay
Homo sapiens [6] = species on record: Homo sapiens; experiment: Inhibition of PI3K in human HCT116 cells assessed as reduction in Akt phosphorylation at Ser473 residue after 24 hrs by Western blot analysis; format: cell-based

Chain of Phosphatidylinositol 4,5-bisphosphate 3-kinase catalytic subunit beta isoform (P42338 whole entry, canonical isoform): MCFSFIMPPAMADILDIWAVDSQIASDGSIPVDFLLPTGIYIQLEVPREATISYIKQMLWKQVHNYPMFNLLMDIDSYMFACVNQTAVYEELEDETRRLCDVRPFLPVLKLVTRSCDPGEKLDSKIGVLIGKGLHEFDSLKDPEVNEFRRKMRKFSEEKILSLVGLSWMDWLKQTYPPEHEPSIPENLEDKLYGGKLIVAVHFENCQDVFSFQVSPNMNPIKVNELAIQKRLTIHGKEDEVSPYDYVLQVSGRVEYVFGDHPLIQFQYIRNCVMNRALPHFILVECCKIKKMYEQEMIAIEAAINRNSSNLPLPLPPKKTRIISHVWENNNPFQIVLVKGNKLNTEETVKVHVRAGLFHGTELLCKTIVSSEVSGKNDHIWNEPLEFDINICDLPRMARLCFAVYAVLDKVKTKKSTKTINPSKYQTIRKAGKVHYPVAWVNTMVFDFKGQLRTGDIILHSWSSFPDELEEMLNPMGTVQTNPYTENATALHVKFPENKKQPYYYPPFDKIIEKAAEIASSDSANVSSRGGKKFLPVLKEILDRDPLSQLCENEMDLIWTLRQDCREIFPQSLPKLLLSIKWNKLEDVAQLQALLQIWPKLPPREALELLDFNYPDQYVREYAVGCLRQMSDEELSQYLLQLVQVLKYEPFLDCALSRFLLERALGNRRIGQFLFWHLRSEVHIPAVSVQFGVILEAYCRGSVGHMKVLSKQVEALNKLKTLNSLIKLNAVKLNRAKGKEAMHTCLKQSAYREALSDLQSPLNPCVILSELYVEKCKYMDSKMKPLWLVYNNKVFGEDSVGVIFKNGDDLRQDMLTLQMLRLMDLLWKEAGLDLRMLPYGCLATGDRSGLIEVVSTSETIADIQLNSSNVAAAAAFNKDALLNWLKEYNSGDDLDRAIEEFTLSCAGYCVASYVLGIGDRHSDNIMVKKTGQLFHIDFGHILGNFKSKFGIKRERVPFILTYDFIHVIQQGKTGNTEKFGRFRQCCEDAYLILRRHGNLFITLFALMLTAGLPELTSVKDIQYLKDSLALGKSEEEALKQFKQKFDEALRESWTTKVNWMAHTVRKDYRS
Chain of Phosphatidylinositol 4,5-bisphosphate 3-kinase catalytic subunit gamma isoform (P48736 whole entry, canonical isoform): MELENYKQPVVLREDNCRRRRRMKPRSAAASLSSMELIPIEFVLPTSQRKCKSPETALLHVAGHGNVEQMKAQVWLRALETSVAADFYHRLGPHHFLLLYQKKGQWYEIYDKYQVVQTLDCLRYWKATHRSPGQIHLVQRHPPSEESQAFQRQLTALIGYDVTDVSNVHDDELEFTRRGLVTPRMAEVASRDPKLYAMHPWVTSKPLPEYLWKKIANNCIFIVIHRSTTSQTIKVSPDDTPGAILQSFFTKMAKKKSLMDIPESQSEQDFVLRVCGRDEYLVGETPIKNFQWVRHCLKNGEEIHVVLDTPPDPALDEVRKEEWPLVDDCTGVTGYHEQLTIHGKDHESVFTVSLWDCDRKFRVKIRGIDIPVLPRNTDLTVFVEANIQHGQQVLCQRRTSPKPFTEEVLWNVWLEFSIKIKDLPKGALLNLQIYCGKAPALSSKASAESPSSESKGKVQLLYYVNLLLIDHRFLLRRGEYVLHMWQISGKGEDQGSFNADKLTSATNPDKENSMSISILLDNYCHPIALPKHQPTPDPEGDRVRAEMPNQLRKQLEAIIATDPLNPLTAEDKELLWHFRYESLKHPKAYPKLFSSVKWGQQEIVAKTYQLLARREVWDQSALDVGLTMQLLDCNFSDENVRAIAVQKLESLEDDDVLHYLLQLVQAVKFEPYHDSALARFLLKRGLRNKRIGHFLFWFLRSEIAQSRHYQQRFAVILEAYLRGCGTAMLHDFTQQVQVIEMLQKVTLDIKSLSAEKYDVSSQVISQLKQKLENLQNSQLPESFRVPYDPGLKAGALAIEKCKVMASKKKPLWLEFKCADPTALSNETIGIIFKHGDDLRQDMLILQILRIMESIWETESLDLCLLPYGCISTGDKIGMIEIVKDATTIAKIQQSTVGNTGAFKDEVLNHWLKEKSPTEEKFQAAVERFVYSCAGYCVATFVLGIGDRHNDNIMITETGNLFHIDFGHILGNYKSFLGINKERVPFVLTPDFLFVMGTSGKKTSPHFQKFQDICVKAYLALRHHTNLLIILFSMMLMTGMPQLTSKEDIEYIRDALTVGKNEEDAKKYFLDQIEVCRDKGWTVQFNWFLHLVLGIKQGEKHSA
Chain of PI3-kinase p110-delta/p85-alpha (P27986 whole entry): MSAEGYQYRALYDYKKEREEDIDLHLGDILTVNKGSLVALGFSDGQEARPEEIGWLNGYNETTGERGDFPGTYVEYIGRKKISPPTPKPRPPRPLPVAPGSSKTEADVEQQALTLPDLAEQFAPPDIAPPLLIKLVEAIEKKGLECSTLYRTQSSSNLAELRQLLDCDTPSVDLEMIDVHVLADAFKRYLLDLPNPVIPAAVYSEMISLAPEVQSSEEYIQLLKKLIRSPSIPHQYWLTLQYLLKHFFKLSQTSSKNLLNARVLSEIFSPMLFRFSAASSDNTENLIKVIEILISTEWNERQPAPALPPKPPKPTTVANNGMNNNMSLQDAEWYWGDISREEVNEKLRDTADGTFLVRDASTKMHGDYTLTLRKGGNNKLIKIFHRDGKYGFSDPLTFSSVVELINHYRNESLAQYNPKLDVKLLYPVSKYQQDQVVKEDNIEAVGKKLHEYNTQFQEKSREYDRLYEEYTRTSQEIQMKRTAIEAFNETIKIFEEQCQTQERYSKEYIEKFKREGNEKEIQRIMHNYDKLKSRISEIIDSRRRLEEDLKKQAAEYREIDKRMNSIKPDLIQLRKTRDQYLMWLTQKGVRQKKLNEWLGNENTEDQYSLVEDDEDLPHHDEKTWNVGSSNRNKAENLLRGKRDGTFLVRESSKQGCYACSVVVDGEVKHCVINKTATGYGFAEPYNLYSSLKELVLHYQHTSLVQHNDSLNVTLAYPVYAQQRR
Chain of PI3-kinase p110-delta/p85-alpha (O00329 whole entry): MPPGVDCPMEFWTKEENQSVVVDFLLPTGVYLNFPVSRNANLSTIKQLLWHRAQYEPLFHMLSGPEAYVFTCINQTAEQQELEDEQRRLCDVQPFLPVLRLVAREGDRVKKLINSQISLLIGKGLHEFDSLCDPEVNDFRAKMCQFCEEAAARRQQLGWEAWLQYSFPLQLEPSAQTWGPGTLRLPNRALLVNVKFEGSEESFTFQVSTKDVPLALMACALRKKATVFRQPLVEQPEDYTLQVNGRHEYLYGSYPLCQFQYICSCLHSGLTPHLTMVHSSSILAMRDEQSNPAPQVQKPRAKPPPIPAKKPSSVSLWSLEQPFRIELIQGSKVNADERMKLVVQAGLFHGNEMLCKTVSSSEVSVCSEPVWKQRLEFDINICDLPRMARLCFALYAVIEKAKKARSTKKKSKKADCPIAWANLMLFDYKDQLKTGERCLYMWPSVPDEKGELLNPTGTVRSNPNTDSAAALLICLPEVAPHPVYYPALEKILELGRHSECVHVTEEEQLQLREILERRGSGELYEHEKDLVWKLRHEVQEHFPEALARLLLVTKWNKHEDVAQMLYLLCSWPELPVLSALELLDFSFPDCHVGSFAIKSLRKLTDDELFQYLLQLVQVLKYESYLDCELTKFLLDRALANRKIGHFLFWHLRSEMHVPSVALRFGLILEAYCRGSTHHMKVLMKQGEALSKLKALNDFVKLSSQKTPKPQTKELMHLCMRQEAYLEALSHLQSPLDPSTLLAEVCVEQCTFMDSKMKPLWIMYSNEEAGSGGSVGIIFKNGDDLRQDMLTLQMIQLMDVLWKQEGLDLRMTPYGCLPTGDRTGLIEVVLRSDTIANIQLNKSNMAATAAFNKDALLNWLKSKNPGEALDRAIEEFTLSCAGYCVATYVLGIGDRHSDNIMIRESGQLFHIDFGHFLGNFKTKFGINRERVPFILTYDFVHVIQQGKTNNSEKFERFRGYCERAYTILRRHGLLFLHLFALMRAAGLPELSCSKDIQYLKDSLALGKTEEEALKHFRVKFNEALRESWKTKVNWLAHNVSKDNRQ
Chain of PI3-kinase p110-alpha/p85-alpha (P27986 whole entry): as the sequence (P27986 whole entry) above
Chain of PI3-kinase p110-alpha/p85-alpha (P42336 whole entry): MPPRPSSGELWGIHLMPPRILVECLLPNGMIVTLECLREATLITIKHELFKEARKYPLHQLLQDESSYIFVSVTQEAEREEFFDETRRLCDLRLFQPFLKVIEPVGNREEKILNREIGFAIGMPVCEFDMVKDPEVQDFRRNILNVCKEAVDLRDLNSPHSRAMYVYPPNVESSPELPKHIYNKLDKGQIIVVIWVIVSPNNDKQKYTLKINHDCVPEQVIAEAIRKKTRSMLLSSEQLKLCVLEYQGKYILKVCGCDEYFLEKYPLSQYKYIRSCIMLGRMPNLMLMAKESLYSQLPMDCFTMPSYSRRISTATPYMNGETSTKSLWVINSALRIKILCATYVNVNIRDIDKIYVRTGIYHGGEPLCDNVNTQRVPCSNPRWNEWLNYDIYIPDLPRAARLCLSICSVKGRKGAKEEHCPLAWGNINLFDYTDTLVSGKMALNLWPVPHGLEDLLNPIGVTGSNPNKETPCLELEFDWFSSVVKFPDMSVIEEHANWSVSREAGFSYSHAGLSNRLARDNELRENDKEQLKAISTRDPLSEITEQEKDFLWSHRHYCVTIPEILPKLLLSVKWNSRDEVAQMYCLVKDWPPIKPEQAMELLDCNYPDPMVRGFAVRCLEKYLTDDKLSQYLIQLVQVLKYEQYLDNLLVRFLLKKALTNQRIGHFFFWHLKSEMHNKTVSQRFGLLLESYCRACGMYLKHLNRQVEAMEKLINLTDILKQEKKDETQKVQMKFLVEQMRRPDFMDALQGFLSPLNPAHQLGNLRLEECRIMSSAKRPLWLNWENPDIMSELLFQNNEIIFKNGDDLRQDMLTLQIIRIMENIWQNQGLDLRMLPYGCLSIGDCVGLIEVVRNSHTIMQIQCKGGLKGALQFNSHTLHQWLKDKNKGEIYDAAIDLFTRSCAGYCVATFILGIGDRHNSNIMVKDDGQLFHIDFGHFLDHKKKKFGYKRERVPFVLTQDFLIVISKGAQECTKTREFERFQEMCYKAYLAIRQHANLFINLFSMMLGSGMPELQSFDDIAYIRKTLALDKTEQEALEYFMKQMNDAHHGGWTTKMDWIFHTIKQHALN

Row | Compound | IC50 [1] [nM] | IC50 (SK-HEP1) [nM] | IC50 (SNU-638) [nM] | IC50 (MDA-MB-231) [nM] | IC50 (HCT-116) [nM] | IC50 (A549) [nM] | IC50 [3] [nM] | IC50 [4] [nM] | IC50 [5] [nM] | inhibition (Homo sapiens [2]) | IC50 (HUVEC) [nM] | inhibition (Homo sapiens [6])
1 | CCOC(=O)c1cn2cc(-c3cnc(OC)c(NS(=O)(=O)c4ccc(F)cc4)c3)ccc2n1 | – | > 20000 | > 20000 | > 20000 | > 20000 | > 20000 | – | – | – | – | – | –
2 | COc1ncc(-c2ccc3ncc(C(=O)NCCN(C)C)n3c2)cc1NS(=O)(=O)c1ccc(F)cc1F | – | > 20000 | 510 | 1800 | 140 | 400 | – | – | – | – | – | –
3 | COc1ncc(-c2ccc3ncn(CCCCC(=O)N4CCOCC4)c(=O)c3c2)cc1NS(=O)(=O)c1ccc(F)cc1F | – | 2250 | > 20000 | 1830 | 1110 | 2540 | – | – | – | – | – | –
4 | COc1ncc(-c2ccc3ncn(CCCCCC(=O)N4CCOCC4)c(=O)c3c2)cc1NS(=O)(=O)c1ccc(F)cc1F | – | 11500 | 19700 | 2150 | 2230 | 7600 | – | – | – | – | – | –
5 | COc1ncc(-c2ccc3ncc(C(=O)N4CCC(OC(=O)c5ccccc5)CC4)n3c2)cc1NS(=O)(=O)c1ccc(F)cc1F | – | 2050 | 1390 | 1450 | 1230 | 1620 | – | – | – | – | – | –
6 | CCOC(=O)c1cnc2ccc(-c3cnc(OC)c(NS(=O)(=O)c4ccc(F)cc4)c3)cn12 | – | > 20000 | > 20000 | 530 | 640 | 510 | – | – | – | – | – | –
7 | COc1ncc(-c2ccc3ncc(C(=O)NCCN4CCOCC4)n3c2)cc1NS(=O)(=O)c1ccc(F)cc1F | 45 | – | – | – | – | – | 89 | – | – | – | – | Dose-dependent effect
8 | COc1ncc(-c2ccc3ncn(CCCn4ccnc4)c(=O)c3c2)cc1NS(=O)(=O)c1ccc(F)cc1F | – | > 20000 | 250 | 11700 | 800 | 200 | – | – | – | – | – | –
9 | COc1ncc(-c2ccc3ncn(CCCn4cccn4)c(=O)c3c2)cc1NS(=O)(=O)c1ccc(F)cc1F | – | > 20000 | 360 | > 20000 | 4000 | 200 | – | – | – | – | – | –

More lines, main results first:

Row | IC50 [1] [nM] | IC50 (SK-HEP1) [nM] | IC50 (SNU-638) [nM] | IC50 (MDA-MB-231) [nM] | IC50 (HCT-116) [nM] | IC50 (A549) [nM] | IC50 [3] [nM] | IC50 [4] [nM] | IC50 [5] [nM] | Compound | inhibition (Homo sapiens [2]) | IC50 (HUVEC) [nM] | inhibition (Homo sapiens [6])
10 | 104 | 1090 | 680 | 760 | 540 | 260 | 59 | – | – | CCOC(=O)c1cnc2ccc(-c3cncc(NS(=O)(=O)c4ccccc4)c3)cn12 | Active | – | –
11 | – | 750 | 1460 | 370 | 1310 | 1150 | – | – | – | COc1ncc(-c2ccc3ncc(C(=O)O)n3c2)cc1NS(=O)(=O)c1ccc(F)cc1F | – | – | –
12 | – | 300 | 15900 | 150 | 1300 | > 20000 | – | – | – | CCOC(=O)c1cc2cc(-c3cnc(OC)c(NS(=O)(=O)c4ccc(F)cc4)c3)ccc2[nH]1 | – | – | –
13 | – | 980 | 490 | 420 | 310 | 500 | – | – | – | COc1ncc(-c2ccc3ncc(C(=O)NCc4ccncc4)n3c2)cc1NS(=O)(=O)c1ccc(F)cc1F | – | – | –
14 | – | 830 | 510 | 2320 | 4940 | 3560 | – | – | – | CCCCS(=O)(=O)Nc1cc(-c2ccc3ncc(C(=O)OCC)n3c2)cnc1OC | – | – | –
15 | 37 | 400 | 300 | 300 | 100 | 500 | 106 | 101 | 3.8 | COc1ncc(-c2ccc3ncc(C(=O)NCCCN4CCOCC4)n3c2)cc1NS(=O)(=O)c1ccc(F)cc1F | – | 3560 | –
16 | – | 1400 | 300 | 120 | 820 | 100 | – | – | – | CCOC(=O)Cn1cnc2ccc(-c3cnc(OC)c(NS(=O)(=O)c4ccc(F)cc4F)c3)cc2c1=O | – | – | –
17 | – | 810 | 2260 | 150 | 1360 | 570 | – | – | – | COc1ncc(-c2ccc3ncn(CCCn4ccccc4=O)c(=O)c3c2)cc1NS(=O)(=O)c1ccc(F)cc1F | – | – | –
18 | – | 300 | 360 | 120 | 90 | 300 | – | – | – | CCOC(=O)c1cnc2ccc(-c3cnc(OC)c(NS(=O)(=O)c4ccc(F)cc4F)c3)cn12 | – | – | –
19 | 116 | 600 | 280 | 500 | 200 | 100 | 108 | 69 | 6.5 | COc1ncc(-c2ccc3ncn(CCCN4CCOCC4)c(=O)c3c2)cc1NS(=O)(=O)c1ccc(F)cc1F | – | 8970 | –
20 | – | 790 | 270 | 630 | 490 | 480 | – | – | – | COc1ncc(-c2ccc3ncc(C(=O)N4CCC(O)CC4)n3c2)cc1NS(=O)(=O)c1ccc(F)cc1F | – | – | –
21 | – | 170 | 90 | 190 | 320 | 230 | – | – | – | CCOC(=O)c1cnc2ccc(-c3cnc(OC)c(NS(C)(=O)=O)c3)cn12 | – | – | –
